The source of these data is US20230357253A1, “AGONISTS OF STIMULATOR OF INTERFERON GENES STING” (THE SCRIPPS RESEARCH INSTITUTE, priority 2020, published 2023).

For one assay, the target named is human STING protein (Homo sapiens (Human), UniProt Q86WV6). In words: WT STING binding assay (HTRF, competition with labeled 2′3′cGAMP). As to conditions: recombinant 6×His-tagged human STING, three hours at room temperature. As to the method: WT STING binding assay (Cisbio, Catalog #64BDSTGPEH). […] Upon proximity of the two dyes, the excitation of the donor by the flash lamp on the PHERAstar FSX plate reader triggers a Fluorescence Resonance Energy Transfer (FRET) towards the acceptor, which in turn fluoresces at 665 nm. To assess the ability of the synthetic small molecule STING ligands to bind to human STING, a competitive assay format was applied. A 10-point titration of each of the synthetic ligands in 5 uL were transferred into a 384 well plate, followed by 20 uL of assay buffer containing the 6×His-tagged human STING protein and labeled 2′3′cGAMP ligand and incubated for three hours at room temperature. The raw values obtained from the PHERAstar were used to calculate the reported IC50 values (the signal is inversely proportional to the binding of the synthetic ligand) through curve fitting in Genedata. The percent inhibition was calculated based upon the maximal amount of binding by synthetic compound versus the maximum binding of unlabeled 2′3′ cGAMP which was used as a control in each assay.

A further assay deals with THP-1 Lucia ISG cells. Nature of the assay: ISRE-luciferase assay (ISG-LUC activation). The assay is classed as cell-based. As to conditions: Homo sapiens, THP1-Lucia ISG, 24 hours, luciferase reporter. In outline:
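THP-1 Lucia ISG cells at 5×10^5 cells/ml in 2% FBS medium were treated with test article or DMSO vehicle for 24 h. Secreted luciferase was read by luminescence and normalized to vehicle, reported as RLU.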

Sequence of human STING protein (Q86WV6 whole entry): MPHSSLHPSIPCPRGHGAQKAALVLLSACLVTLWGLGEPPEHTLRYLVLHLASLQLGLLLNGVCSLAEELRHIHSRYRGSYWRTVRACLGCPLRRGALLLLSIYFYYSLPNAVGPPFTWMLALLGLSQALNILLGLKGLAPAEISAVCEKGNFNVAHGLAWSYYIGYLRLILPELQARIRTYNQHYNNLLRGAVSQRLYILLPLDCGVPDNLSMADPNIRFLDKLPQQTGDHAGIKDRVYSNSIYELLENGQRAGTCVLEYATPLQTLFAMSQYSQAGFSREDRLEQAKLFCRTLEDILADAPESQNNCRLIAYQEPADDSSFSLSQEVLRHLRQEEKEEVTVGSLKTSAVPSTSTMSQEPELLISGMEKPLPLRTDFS

What is called IC50 is the concentration at which inhibition is half-maximal. Broadly, the EC50 is the concentration needed to bring the measured effect to its halfway point. On to `COc1cc(NC(=O)c2ccc3nnnn3n2)c(C(=O)O)cc1CCOc1cc(NC(=O)c2ccc(-n3ccnc3)nn2)c(C(=O)O)cc1F` [Compound 103], for which, at human STING protein, the IC50 fell in the range of 100 to 1000 nM. This compound registered a 50% effective concentration (EC50) in the assay with THP-1 Lucia ISG cells of 500 to 5000 nM.
Take `O=C(Nc1cc(CCCc2cc(NC(=O)c3ccc4nnnn4n3)c(C(=O)O)nc2Cl)ccc1C(=O)O)c1ccc(-n2ccnc2)nn1` [Compound 87]: on human STING protein, the half-inhibitory concentration (IC50) was in the range of 10 to 100 nM. In addition, the EC50 in the assay on THP-1 Lucia ISG cells lay in the range of 50 to 500 nM.
Consider `O=C(Nc1cc(OCCCCOc2cc(NC(=O)c3ccc4nnnn4n3)c(C(=O)O)cc2Cl)ccc1C(=O)O)c1ccc(-n2ccnc2)nn1` [Compound 72], for which the 50% inhibitory concentration (IC50) on human STING protein was 10 to 100 nM. The compound further yielded an EC50 with THP-1 Lucia ISG cells of 500 to 5000 nM.
On the same counts, the results for `O=C(Nc1cc(CCCc2ccc(C(=O)O)c(NC(=O)c3ccc4nnnn4n3)c2)c(Cl)cc1C(=O)O)c1ccc(-n2ccnc2)nn1` [Compound 105] are 10 to 100 nM and 500 to 5000 nM.
On the same counts, the results for `COc1cc(NC(=O)c2ccc3nnnn3n2)c(C(=O)O)cc1CCCc1cc(NC(=O)c2ccc(-n3ccnc3)nn2)c(C(=O)O)cc1F` [Compound 96] are 10 to 100 nM and 50 to 500 nM.
On the same counts, the results for `COC(=O)c1nc(Cl)c(CCCc2cnc(C(=O)O)c(NC(=O)c3ccc(-n4ccnc4)nn3)c2)cc1NC(=O)c1ccc(-n2ccnc2)nn1` [Compound 80] are 10 to 100 nM and 500 to 5000 nM.
With `O=C(Nc1cc(CCCc2cnc(C(=O)O)c(NC(=O)c3ccc(-n4ccnc4)nn3)c2)c(F)cc1C(=O)O)c1ccc2nnnn2n1` [Compound 82], at human STING protein, the IC50 fell in the range of 100 to 1000 nM. Further, the concentration giving a half-maximal response (EC50) with THP-1 Lucia ISG cells is above 5000 nM.
On to `COc1cc(C(=O)O)c(NC(=O)c2ccc3nnnn3n2)cc1CCOc1cc(NC(=O)c2ccc(-n3ccnc3)nn2)c(C(=O)O)cc1F` [Compound 100], for which, on human STING protein, the IC50 lay within 100 to 1000 nM. This compound gave an EC50 in the assay on THP-1 Lucia ISG cells of 50 to 500 nM.
As for `O=C(Nc1cc(OCCCCOc2ccc(C(=O)O)c(NC(=O)c3ccc4nnnn4n3)c2)c(F)cc1C(=O)O)c1ccc(-n2ccnc2)nn1` [Compound 57], the IC50 on human STING protein was in the range of 10 to 100 nM. The EC50 with THP-1 Lucia ISG cells is above 5000 nM.
On the same counts, the results for `COc1cc(C(=O)O)c(NC(=O)c2ccc3nnnn3n2)cc1CCCc1cc(NC(=O)c2ccc(-n3ccnc3)nn2)c(C(=O)O)cc1F` [Compound 115] are 10 to 100 nM and 50 to 500 nM.
With `O=C(Nc1cc(OCCc2cc(NC(=O)c3ccc(-n4ccnc4)nn3)c(C(=O)O)nc2Cl)c(F)cc1C(=O)O)c1ccc(-n2ccnc2)nn1` [Compound 181], the 50% inhibitory concentration (IC50) on human STING protein was 10 to 100 nM. For the same compound, in the assay with THP-1 Lucia ISG cells, the half-maximal effective concentration (EC50) lay within 50 to 500 nM.
Turning to `O=C(Nc1cc(OCCCCOc2cnc(C(=O)O)c(NC(=O)c3ccc4nnnn4n3)c2)c(F)cc1C(=O)O)c1ccc(-n2ccnc2)nn1` [Compound 83], the IC50 on human STING protein was 100 to 1000 nM. Besides, the half-maximal effective concentration (EC50) in the assay on THP-1 Lucia ISG cells is above 5000 nM.
On the same counts, the results for `O=C(Nc1cc(CCCc2ccc(NC(=O)c3ccc(-n4ccnc4)nn3)c(C(=O)O)c2)ccc1C(=O)O)c1ccc(-n2ccnc2)nn1` [Compound 55] are 10 to 100 nM and 500 to 5000 nM.
On the same counts, the results for `O=C(Nc1cc(CCOc2cc(NC(=O)c3ccc4nnnn4n3)c(C(=O)O)cc2F)c(F)cc1C(=O)O)c1ccc2nnnn2n1` [Compound 160] are 100 to 1000 nM and above 5000 nM.
The corresponding values for `O=C(Nc1cc(CCCc2cc(NC(=O)c3ccc4cnnn4n3)c(C(=O)O)cc2F)c(F)cc1C(=O)O)c1ccc(-n2ccnc2)nn1` [Compound 117] are 10 to 100 nM and 500 to 5000 nM.
Regarding `COC(=O)c1cc(F)c(CCCc2cc(NC(=O)c3ccc4nnnn4n3)c(C(=O)O)cc2F)cc1NC(=O)c1ccc(-n2ccnc2)nn1` [Compound 76], at human STING protein, the IC50 lay in the range of 10 to 100 nM. The concentration giving a half-maximal response (EC50) in the assay with THP-1 Lucia ISG cells lay within 50 to 500 nM.
`COc1cc(NC(=O)c2ccc(-n3ccnc3)nn2)c(C(=O)O)cc1OCCc1cc(NC(=O)c2ccc(-n3ccnc3)nn2)c(C(=O)O)cc1F` [Compound 142]: on human STING protein, the IC50 was 10 to 100 nM. For the same compound, the EC50 in the assay with THP-1 Lucia ISG cells fell in the range of 50 to 500 nM.
On the same counts, the results for `O=C(Nc1cc(OCCCCOc2cc(NC(=O)c3ccc4nnnn4n3)c(C(=O)O)cc2F)c(F)cc1C(=O)O)c1ccc(-n2ccnc2)nn1` [Compound 22] are 100 to 1000 nM and above 5000 nM.
On the same counts, the results for `CC(COc1cc(NC(=O)c2ccc(-n3ccnc3)nn2)c(C(=O)O)cc1F)COc1cc(NC(=O)c2ccc(-n3ccnc3)nn2)c(C(=O)O)cc1F` [Compound 185] are 10 to 100 nM and 500 to 5000 nM.
On to `O=C(Nc1cc(CCOc2c(F)cc(C(=O)O)c(NC(=O)c3ccc4nnnn4n3)c2F)c(F)cc1C(=O)O)c1ccc(-n2ccnc2)nn1` [Compound 118], for which, on human STING protein, the concentration for half-maximal inhibition (IC50) lay in the range of 100 to 1000 nM. Also, the EC50 with THP-1 Lucia ISG cells lay in the range of 500 to 5000 nM.
The corresponding values for `O=C(Nc1cc(OCCCCOc2cnc(C(=O)O)c(NC(=O)c3ccc(-n4ccnc4)nn3)c2)c(F)cc1C(=O)O)c1ccc2nnnn2n1` [Compound 64] are 10 to 100 nM and above 5000 nM.
Turning to `COC(=O)c1ccc(CCCc2ccc(C(=O)O)c(NC(=O)c3ccc(-n4ccnc4)nn3)c2)cc1NC(=O)c1ccc(-n2ccnc2)nn1` [Compound 47], the IC50 on human STING protein was 100 to 1000 nM. The compound also yielded an EC50 in the assay with THP-1 Lucia ISG cells of 500 to 5000 nM.
The corresponding values for `COC(=O)c1ccc(CCCc2cc(NC(=O)c3ccc4nnnn4n3)c(C(=O)O)cc2F)cc1NC(=O)c1ccc(-n2ccnc2)nn1` [Compound 88] are 100 to 1000 nM and 500 to 5000 nM.
On the same counts, the results for `O=C(Nc1cc(CCCc2ccc(C(=O)O)c(NC(=O)c3ccc(-n4ccnc4)nn3)c2)ccc1C(=O)O)c1ccc(-n2ccnc2)nn1` [Compound 48] are 10 to 100 nM and 50 to 500 nM.
On the same counts, the results for `CN(Cc1cc(NC(=O)c2ccc(-n3ccnc3)nn2)c(C(=O)O)cc1F)Cc1cc(NC(=O)c2ccc(-n3ccnc3)nn2)c(C(=O)O)cc1F` [Compound 8, 4,4′-((methylazanediyl)bis(methylene))bis(2-(6-(1H-imidazol-1-yl)pyridazine-3-carboxamido)-5-fluorobenzoic acid)] are below 10 nM and 500 to 5000 nM.
On to `NC(=O)c1nnn2nc(C(=O)Nc3cc(CCOc4cc(NC(=O)c5ccc(-n6ccnc6)nn5)c(C(=O)O)cc4F)c(F)cc3C(=O)O)ccc12` [Compound 135], for which the IC50 on human STING protein fell in the range of 10 to 100 nM. Moreover, the EC50 with THP-1 Lucia ISG cells was in the range of 50 to 500 nM.
In the case of `O=C(Nc1cc(OCCCCOc2ccc(C(=O)O)c(NC(=O)c3ccc4nnnn4n3)c2)ccc1C(=O)O)c1ccc(-n2ccnc2)nn1` [Compound 20], the concentration for half-maximal inhibition (IC50) on human STING protein was in the range of 100 to 1000 nM. In addition, the half-maximal effective concentration (EC50) with THP-1 Lucia ISG cells is above 5000 nM.
The corresponding values for `O=C(Nc1cc(CCCc2cc(NC(=O)c3ccc4nnnn4n3)c(C(=O)O)cc2F)c(F)cc1C(=O)O)c1ccc2nnnn2n1` [Compound 161] are 100 to 1000 nM and above 5000 nM.
`O=C(Nc1cc(CCCc2cc(C(=O)O)c(NC(=O)c3ccc4nnnn4n3)cc2Cl)ccc1C(=O)O)c1ccc(-n2ccnc2)nn1` [Compound 93]: the IC50 at human STING protein is 10 to 100 nM. Moreover, in the assay with THP-1 Lucia ISG cells, the EC50 was 50 to 500 nM.
`O=C(Nc1cc(CCOc2cc(NC(=O)c3ccc4nnnn4n3)c(C(=O)O)cc2F)ccc1C(=O)O)c1ccc(-n2ccnc2)nn1` [Compound 92]: the IC50 on human STING protein lay within 10 to 100 nM. In the assay with THP-1 Lucia ISG cells, this compound showed a 50% effective concentration (EC50) of 50 to 500 nM.
In the case of `O=C(Nc1cc(OCCc2cc(C(=O)O)c(NC(=O)c3ccc4nnnn4n3)cc2F)c(F)cc1C(=O)O)c1ccc2nnnn2n1` [Compound 176], the half-maximal inhibitory concentration (IC50) on human STING protein was in the range of 100 to 1000 nM. For the same compound, the EC50 in the assay with THP-1 Lucia ISG cells was above 5000 nM.
Turning to `C#Cc1cc(C(=O)O)c(NC(=O)c2ccc(-n3ccnc3)nn2)cc1CCOc1cc(NC(=O)c2ccc(-n3ccnc3)nn2)c(C(=O)O)cc1F` [Compound 183], the IC50 on human STING protein was in the range of 100 to 1000 nM. The compound also registered an EC50 in the assay on THP-1 Lucia ISG cells of 500 to 5000 nM.
